{
  "source": "paper PMC8032764",
  "about": "(Scientific Reports, 2021)",
  "key": {"[1]": {"system": "male Lister Hooded rats", "experiment": "Diazepam-induced spatial learning impairment in the Morris water maze", "assay_type": "in vivo, rat", "details": "diazepam 6 mg/kg i.p.", "method": "The current study used a modified version of the standard acquisition protocol, in which pre-trained rats had to learn to locate a new platform position during six trials on the test day, as described previously. Subjects were semi-randomly divided into treatment groups based on their performance on the last training day. A computer tracking system (HVS Image Ltd, UK) was used to analyse each rat’s swim path on-line.\nLatency, pathlength and swim speed (Supplementary Fig. S2) were analysed with a one-factor ANOVA. For the probe trial, to determine whether each treatment group had learned the spatial position of the platform, within-subjects ANOVA was used to compare percent time spent in the platform quadrant with the left, right and opposite quadrants. All significant cases were followed by a post hoc Newman–Keuls test. In addition, a comparison between vehicle treated and diazepam-treated rats on the percent time spent in the platform quadrant was analysed using an unpaired t-test."}, "[2]": {"system": "Wistar rats", "experiment": "Pentylenetetrazole (PTZ) test", "assay_type": "in vivo, rat", "details": "positive control, 10 mg/kg i.p. 30 min prior to PTZ, p < 0.05", "method": "PTZ was prepared in 0.9% saline and was administered s.c. in a volume of 1 mL/kg. The positive control FG7142, a non-selective GABAA receptor NAM, was prepared in 0.3% Tween 80 v/v saline and was administered i.p. in a volume of 1 mL/kg. […] During this period the number of rats showing tonic convulsions was noted.\nFG7142 was administered at 10 mg/kg 30 min prior to PTZ. The percent of rats in each dose group showing tonic convulsions was compared to the control group by the Pearson Chi-Square test."}, "[3]": {"molecular_target": "human GABAA α5β3γ2 (Homo sapiens, UniProt P18507+P31644)", "sequence (P31644 32-462)": "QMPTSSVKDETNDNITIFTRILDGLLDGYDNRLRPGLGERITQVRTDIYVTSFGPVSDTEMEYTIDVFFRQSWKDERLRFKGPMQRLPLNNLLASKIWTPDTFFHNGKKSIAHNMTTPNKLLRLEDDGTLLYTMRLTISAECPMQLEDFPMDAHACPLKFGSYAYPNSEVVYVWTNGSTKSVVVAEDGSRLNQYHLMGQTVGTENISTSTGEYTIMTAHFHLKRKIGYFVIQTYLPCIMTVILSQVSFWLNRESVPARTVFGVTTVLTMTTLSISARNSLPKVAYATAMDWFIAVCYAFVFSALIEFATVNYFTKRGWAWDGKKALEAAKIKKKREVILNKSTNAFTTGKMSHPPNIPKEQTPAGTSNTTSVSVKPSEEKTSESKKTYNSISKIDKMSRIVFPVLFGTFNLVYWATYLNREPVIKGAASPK", "sequence (P28472 26-473 partner)": "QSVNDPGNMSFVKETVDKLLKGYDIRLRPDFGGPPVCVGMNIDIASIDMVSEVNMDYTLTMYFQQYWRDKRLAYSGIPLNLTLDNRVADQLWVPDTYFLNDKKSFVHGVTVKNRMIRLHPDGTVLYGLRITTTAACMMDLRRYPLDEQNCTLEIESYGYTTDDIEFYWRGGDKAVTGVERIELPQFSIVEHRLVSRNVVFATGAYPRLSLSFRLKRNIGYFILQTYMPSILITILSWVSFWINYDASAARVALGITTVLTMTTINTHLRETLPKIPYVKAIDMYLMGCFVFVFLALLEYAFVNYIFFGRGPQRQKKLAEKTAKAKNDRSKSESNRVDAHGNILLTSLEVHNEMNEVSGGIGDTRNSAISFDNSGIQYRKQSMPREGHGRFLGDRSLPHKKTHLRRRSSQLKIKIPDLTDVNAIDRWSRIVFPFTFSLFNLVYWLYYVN", "sequence (P18507 40-475)": "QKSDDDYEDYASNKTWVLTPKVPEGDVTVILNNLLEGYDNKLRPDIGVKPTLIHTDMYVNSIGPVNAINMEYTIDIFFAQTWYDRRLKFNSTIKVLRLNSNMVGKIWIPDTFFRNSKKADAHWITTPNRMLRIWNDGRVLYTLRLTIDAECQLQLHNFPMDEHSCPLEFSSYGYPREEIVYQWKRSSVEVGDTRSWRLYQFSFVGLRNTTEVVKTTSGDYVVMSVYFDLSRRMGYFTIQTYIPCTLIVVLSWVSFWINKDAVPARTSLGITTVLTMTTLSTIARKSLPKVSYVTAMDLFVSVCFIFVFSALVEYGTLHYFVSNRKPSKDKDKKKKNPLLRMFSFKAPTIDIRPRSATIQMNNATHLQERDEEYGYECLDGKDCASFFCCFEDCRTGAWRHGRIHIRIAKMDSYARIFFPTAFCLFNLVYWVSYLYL", "experiment": "Two-electrode voltage clamp in Xenopus oocytes, current induced by EC10 of GABA", "assay_type": "cell-based", "parameters": "expressed in transfected cells; host or cells: Xenopus laevis oocytes, cRNA injection", "method": "Freshly prepared oocytes of maturation stage VI were bought from Ecocyte Bioscience (Castrop-Rauxel, Germany) and, after overnight delivery, plated into 96-well plates (Greiner no. 651101) for microinjection on a ROBOOCYTE R16 system (Multichannel Systems MCS GmbH, Reutlingen, Germany). Each oocyte was injected with roughly 50 nL of RNA solution. The solution for expressing receptors composed of the human α1, β2 and γ2 subunits contained 3 pg/nL of α1 and β2 RNA and 15 pg/nL of γ2 RNA. The solution for expressing human α2β3γ2 receptors contained 2.5 pg/nL of α2 and β3 RNA, 5 pg/nL of γ2 RNA and 10 pg/nL of GABARAP RNA. The solution for expressing human α3β3γ2 receptors contained 1.3 pg/nL of α3 and β3 RNA and 6.5 pg/nL of γ2 RNA. The solution for expressing human α5β3γ2 receptors contained 1.3 pg/nL of α5 and β3 RNA and 13 pg/nL of γ2 RNA. […] After the microinjection the oocytes were kept at 20 °C temperature until the electrophysiological experiment. Experiments were done 3 to 5 days later on the ROBOOCYTE instrument which employs the two-microelectrode voltage-clamp technique for membrane voltage control and current measurement. […] During current recording and compound testing the cell membrane was constantly clamped to − 80 mV. Current signals were recorded and stored on a PC-type computer using the ROBOOCYTE software.\n(§1) During the microinjection and up to the electrophysiological experiment the oocytes were kept in a solution containing 88 mM NaCl, 1 mM KCl, 2.5 mM NaHCO3, 10 mM HEPES (AppliChem GmbH, Darmstadt, Germany), 0.82 MgSO4, 0.33 mM Ca(NO3)2, 0.33 mM CaCl2, 100 U/mL penicillin (GIBCO, ThermoFisher Scientific) and 100 µg/mL streptomycine (GIBCO, ThermoFisher Scientific). The pH was adjusted to 7.5. During the experiment the voltage-clamped oocyte was constantly superfused by a solution containing 90 mM NaCl, 1 mM KCl, 5 mM HEPES (AppliChem), 1 mM MgCl2 and 1 mM CaCl2 (pH 7.4). GABA and test compounds were added to this solution. GABA concentrations were chosen according to previously determined concentration–response relations for the different human GABAA receptor subunit combinations. Concentrations evoking approximately 10% of a maximal response were selected, i.e., 8 µM for α1β2γ2, 6 µM for α2β3γ2, 10 µM for α3β3γ2 and 5 µM for α5β3γ2. Solutions containing GABA or test compounds were freshly prepared at least every second day. […] Compounds were further diluted in DMSO and finally in extracellular saline to reach a DMSO concentration of 0.1%. The same amount of DMSO was added to the control solutions without test compounds.\nDuring the experiment the solutions were fed into the well containing the voltage-clamped oocyte via Teflon tubings connected by electromagnetic valves which allowed rapid switching between different solutions (controlled by the ROBOCYTE software). Approximately 1–2 min after impaling an oocyte and switching to voltage-clamp mode GABA was applied for 90 s to record a control response. Thereafter the oocyte was washed with saline for 160 s followed by another 90 s GABA application. Then 30 s after the onset of the second GABA application the system switched to a solution containing GABA plus the test compound. Each oocyte was used for testing one concentration of a single test compound (for α5β3γ2: 1 nM: n = 8, 10 nM: n = 8, 100 nM: n = 7, 1000 nM: n = 7).\nIn this case each GABA application lasted 110 s and the rest period between the two GABA applications was 190 s long.\nOn each 96-well plate 3–6 oocytes were used for testing a known NAM at the BZD binding site, β-CCM (FG7106), as a positive control. […] Maximally effective concentrations of β-CCM were used for each subunit combination, i.e., 100 nM β-CCM for α1β2γ2, 300 nM for α2β3γ2 or α3β3γ2 and 1 µM for α5β3γ2."}, "[4]": {"molecular_target": "GABAA α3β3γ2", "details": "Table S4a, cited from earlier work"}, "[5]": {"molecular_target": "GABAA α5β3γ2", "details": "cited from earlier work"}, "[6]": {"molecular_target": "GABAA α1β3γ2", "details": "Table S4a, cited from earlier work"}, "[7]": {"molecular_target": "GABAA α2β3γ2", "details": "Table S4a, cited from earlier work"}, "[8]": {"system": "male F-344 rats", "experiment": "Social approach avoidance test", "details": "positive control, 3 mg/kg p.o., 30 min prior to testing", "quoted_text": "Experiments on social approach avoidance were performed as described previously by[41] and[14]. A tracking system (Ethovision, Noldus, The Netherlands) was used to analyse each rat’s pathway."}, "[9]": {"system": "T1, human GABAA α2β3γ2", "T1 construct": "expressed in transfected cells; host or cells: Xenopus laevis oocytes, cRNA injection", "experiment": "Two-electrode voltage clamp in Xenopus oocytes, current induced by EC10 of GABA", "assay_type": "cell-based", "details": "300 nM β-CCM; not shown", "method": "Freshly prepared oocytes of maturation stage VI were bought from Ecocyte Bioscience (Castrop-Rauxel, Germany) and, after overnight delivery, plated into 96-well plates (Greiner no. 651101) for microinjection on a ROBOOCYTE R16 system (Multichannel Systems MCS GmbH, Reutlingen, Germany). Each oocyte was injected with roughly 50 nL of RNA solution. The solution for expressing receptors composed of the human α1, β2 and γ2 subunits contained 3 pg/nL of α1 and β2 RNA and 15 pg/nL of γ2 RNA. The solution for expressing human α2β3γ2 receptors contained 2.5 pg/nL of α2 and β3 RNA, 5 pg/nL of γ2 RNA and 10 pg/nL of GABARAP RNA. The solution for expressing human α3β3γ2 receptors contained 1.3 pg/nL of α3 and β3 RNA and 6.5 pg/nL of γ2 RNA. The solution for expressing human α5β3γ2 receptors contained 1.3 pg/nL of α5 and β3 RNA and 13 pg/nL of γ2 RNA. GABARAP was added to the α2β3γ2 subunit mixture since the expression of γ2 would be low otherwise, as indicated by a weak effect of β-CCM[60]. After the microinjection the oocytes were kept at 20 °C temperature until the electrophysiological experiment. Experiments were done 3 to 5 days later on the ROBOOCYTE instrument which employs the two-microelectrode voltage-clamp technique for membrane voltage control and current measurement. […] During current recording and compound testing the cell membrane was constantly clamped to − 80 mV. Current signals were recorded and stored on a PC-type computer using the ROBOOCYTE software.\nas §1, with “compounds. […]” for “compounds.”"}},
  "note": "pKi: −log10 of the molar value. Where two headings read alike, the source gives them in different places.",
  "data": [
    {"smiles": "CN1C(=O)CN=C(c2ccccc2)c2cc(Cl)ccc21", "note": "[Diazepam, reference compound]", "values": [
      {"measurement": "latency and pathlength to find the platform across six trials", "setting": "[1]", "value": "significantly increased the latency and pathlength"},
      {"measurement": "swim speed", "setting": "[1]", "value": "small but significant increase in swim speed"},
      {"measurement": "probe trial, learning of the new platform position", "setting": "[1]; 30 min before test", "value": "significantly disrupted learning of the new platform position"}
    ]},
    {"smiles": "CNC(=O)c1cc2c(cn1)[nH]c1ccccc12", "note": "[FG7142, N-Methyl-9H-pyrido[5,4-b]indole-3-carboxamide, reference compound]", "values": [
      {"measurement": "number of rats showing tonic convulsions", "setting": "[2]", "value": "increased the number of rats showing tonic convulsions"}
    ]},
    {"smiles": "CCOC(=O)c1ncn2c1CN(C)C(=O)c1cc(F)ccc1-2", "note": "[Flumazenil, reference compound]", "values": [
      {"measurement": "enhancement of the GABA-induced current", "setting": "[3]; 30 and 1000 nM, concentration-dependent", "value": "up to 28%"}
    ]},
    {"smiles": "CCOC(=O)c1ncn2c1[C@@H]1CCCN1C(=O)c1cc(OC)ccc1-2", "note": "[L-655,708]", "values": [
      {"measurement": "pKi", "setting": "[4]; ref Atack et al., 2006", "value": 7.51},
      {"measurement": "pKi", "setting": "[5]; Table S4a, ref Atack et al., 2006, read-out: Ki α5β3γ2", "value": 9.00},
      {"measurement": "pKi", "setting": "[5]; discussion, no reference given, read-out: Ki at the GABAA-α5 receptor subtype", "value": "~9.00"},
      {"measurement": "pKi", "setting": "[6]; ref Atack et al., 2006", "value": 7.15},
      {"measurement": "pKi", "setting": "[7]; ref Atack et al., 2006", "value": 7.32}
    ]},
    {"smiles": "COCc1ncn2c1CN(C)C(=O)c1cc(Cl)ccc1-2", "note": "[PWZ-029]", "values": [
      {"measurement": "pKi", "setting": "[4]; ref Savić et al., 2008", "value": "< 6.52"},
      {"measurement": "pKi", "setting": "[5]; Table S4a, ref Savić et al., 2008, read-out: Ki α5β3γ2", "value": 7.52},
      {"measurement": "pKi", "setting": "[6]; ref Savić et al., 2008", "value": 6.04},
      {"measurement": "pKi", "setting": "[7]; ref Savić et al., 2008", "value": "< 6.52"}
    ]},
    {"smiles": "CN1Cc2c(C(=O)OC(C)(C)C)ncn2-c2ccsc2C1=O", "note": "[Ro 19-4603, reference compound]", "values": [
      {"measurement": "time in the social compartment", "setting": "[8]; p < 0.001", "value": "significantly decreased the time in the social compartment"},
      {"measurement": "time in the hidden area", "setting": "[8]; p < 0.05", "value": "increased the time in the hidden area"}
    ]},
    {"smiles": "COC(=O)c1cc2c(cn1)[nH]c1ccccc12", "note": "[β-CCM, methyl beta-carboline-3-carboxylate, reference compound]", "values": [
      {"measurement": "inhibition of GABA response", "setting": "[9]", "value": 42, "unit": "%"},
      {"measurement": "reduction of the GABA-evoked current", "setting": "[3]; maximally effective concentration, 1 µM β-CCM, data not shown", "value": 52, "unit": "%"}
    ]}
  ]
}
